Experiments:
[1] = biological target: T1, Peroxisome proliferator-activated receptor alpha (Homo sapiens) (UniProt Q07869); assay: Agonist activity at human PPARalpha ligand binding domain expressed in human 293T cells co-transfected with Gal4-DBD by luciferase transactivation assay relative to KRP297; assay type: cell-based
T1 sequence (whole entry): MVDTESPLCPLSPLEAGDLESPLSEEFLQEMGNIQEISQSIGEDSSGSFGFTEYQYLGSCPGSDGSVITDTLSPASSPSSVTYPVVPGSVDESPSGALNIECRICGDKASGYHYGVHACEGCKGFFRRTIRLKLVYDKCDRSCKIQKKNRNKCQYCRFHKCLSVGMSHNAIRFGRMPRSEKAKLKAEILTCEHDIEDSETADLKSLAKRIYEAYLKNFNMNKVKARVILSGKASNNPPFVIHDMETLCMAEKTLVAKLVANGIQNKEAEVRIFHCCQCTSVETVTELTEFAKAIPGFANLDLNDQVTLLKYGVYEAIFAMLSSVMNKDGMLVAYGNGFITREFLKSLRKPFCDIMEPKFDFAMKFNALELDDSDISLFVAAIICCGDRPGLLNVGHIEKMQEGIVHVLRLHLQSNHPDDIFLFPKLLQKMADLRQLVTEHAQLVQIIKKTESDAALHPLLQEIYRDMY

[2] = biological target: T2, Peroxisome proliferator-activated receptor alpha (Homo sapiens, UniProt Q07869); assay: Agonist activity at human PPARalpha ligand binding domain expressed in human 293T cells co-transfected with Gal4-DBD by luciferase transactivation assay; assay type: cell-based; conditions: read-out: EC50
T2 sequence (Q07869 whole entry): T1 sequence (whole entry)

[3] = biological target: T3, Peroxisome proliferator-activated receptor gamma (Homo sapiens, UniProt P37231); assay type: cell-based, 293T; conditions: read-out: EC50
T3 sequence (P37231 whole entry): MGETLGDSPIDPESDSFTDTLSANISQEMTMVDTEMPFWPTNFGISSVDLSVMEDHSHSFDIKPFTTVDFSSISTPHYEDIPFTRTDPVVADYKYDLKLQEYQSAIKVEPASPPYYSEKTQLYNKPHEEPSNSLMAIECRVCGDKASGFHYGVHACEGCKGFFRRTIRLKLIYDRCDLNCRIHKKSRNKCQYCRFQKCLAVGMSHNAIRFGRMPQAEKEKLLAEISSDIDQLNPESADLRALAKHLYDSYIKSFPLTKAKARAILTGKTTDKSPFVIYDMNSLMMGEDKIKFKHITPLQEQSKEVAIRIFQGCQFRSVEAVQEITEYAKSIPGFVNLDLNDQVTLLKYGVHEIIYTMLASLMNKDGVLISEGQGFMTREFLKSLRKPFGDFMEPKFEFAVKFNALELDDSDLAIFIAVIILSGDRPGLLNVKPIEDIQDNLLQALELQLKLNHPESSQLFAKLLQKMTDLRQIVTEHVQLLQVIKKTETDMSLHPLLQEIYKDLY

[4] = biological target: T4, Peroxisome proliferator-activated receptor delta (Homo sapiens, UniProt Q03181)
T4 sequence (Q03181 whole entry): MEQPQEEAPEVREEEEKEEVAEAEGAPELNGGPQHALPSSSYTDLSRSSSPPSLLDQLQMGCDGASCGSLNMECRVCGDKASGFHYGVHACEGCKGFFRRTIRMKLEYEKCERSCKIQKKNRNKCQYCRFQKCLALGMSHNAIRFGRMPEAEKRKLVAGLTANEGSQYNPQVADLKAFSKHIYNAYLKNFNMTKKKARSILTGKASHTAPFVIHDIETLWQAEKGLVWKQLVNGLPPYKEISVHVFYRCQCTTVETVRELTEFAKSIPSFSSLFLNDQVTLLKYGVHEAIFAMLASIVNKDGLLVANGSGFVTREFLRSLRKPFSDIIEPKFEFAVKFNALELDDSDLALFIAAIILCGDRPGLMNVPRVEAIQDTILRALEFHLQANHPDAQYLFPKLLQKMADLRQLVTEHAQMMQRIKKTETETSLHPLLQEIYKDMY

Mus musculus [5] = assay: Upregulation of PDK4 expression in C57BL/6 mouse at 10 mg/kg, po qd relative to control; assay type: functional
[6] = biological target: T4, Peroxisome proliferator-activated receptor delta; remark: listed apart in the source
Mus musculus [7] = assay: Upregulation of UCP3 expression in C57BL/6 mouse at 10 mg/kg, po qd relative to control; assay type: functional
[8] = biological target: Peroxisome proliferator-activated receptor delta (Homo sapiens) (UniProt Q03181); assay: Agonist activity at human PPARdelta by FRET assay

| SMILES | Efficacy [1] [%] | EC50 [2] [nM] | EC50 [3] [nM] | EC50 [4] [nM] | fold change (FC) (Mus musculus [5]) | EC50 [6] [nM] | fold change (FC) (Mus musculus [7]) | EC50 [8] [nM] |
| --- | --- | --- | --- | --- | --- | --- | --- | --- |
| COc1ccc(-c2csc(COc3ccc(OCC(=O)O)c(C)c3)n2)cc1 | 5 | 4080 | > 10000 | 4060 |  |  |  |  |
| Cc1cc(OCc2nc(-c3ccc(OC(C)C)cc3)c(-c3ccc(-c4ccccc4)cc3)s2)ccc1OCC(=O)O |  |  |  | 9 | 1.5 | 10 | 2.4 | 29 |
| Cc1cc(OCc2nc(-c3ccc(C(=O)N4CCCCC4)cc3)c(-c3ccc(OC(F)(F)F)cc3)o2)ccc1OCC(=O)O | 43 | 1150 | > 10000 | 18 |  |  |  |  |
| Cc1cc(OCc2nc(-c3cnc(N4CCOCC4)nc3)c(-c3ccc(OC(F)(F)F)cc3)o2)ccc1OCC(=O)O | 69 | 410 | 1030 | 1 |  |  |  |  |
| Cc1cc(OCc2nc(-c3ccc(C(=O)N(C)C(C)C)cc3)c(-c3ccc(OC(F)(F)F)cc3)o2)ccc1OCC(=O)O | 49 | 700 | 600 | 1 |  |  |  |  |
| Cc1cc(OCc2nc(-c3ccc(-c4ccccc4)cc3)cs2)ccc1OCC(=O)O | 42 | 480 | > 10000 | 340 |  |  |  |  |
| Cc1cc(OCc2nc(-c3ccc(N4CCCCC4)cc3)c(-c3ccc(OC(F)(F)F)cc3)s2)ccc1OCC(=O)O | 9 | 5200 | > 10000 | 52 |  |  |  |  |
| Cc1cc(OCc2nc(-c3cnc(N4CCOCC4)nc3)c(-c3ccc(OC(F)(F)F)cc3)s2)ccc1OCC(=O)O | 38 | 1990 | > 10000 | 3 |  |  |  |  |
| Cc1cc(OCc2nc(-c3cnc(OC(C)C)nc3)c(-c3ccc(OC(F)(F)F)cc3)o2)ccc1OCC(=O)O | 82 | 160 | 980 | 1 |  |  |  |  |
| Cc1cc(OCc2nc(-c3ccccc3)c(-c3ccccc3)s2)ccc1OCC(=O)O |  | > 10000 | > 10000 | > 10000 |  |  |  |  |
| COc1ccc(-c2nc(COc3ccc(OCC(=O)O)c(C)c3)sc2/C=C/c2ccccc2)cc1 |  | > 10000 | > 10000 | 110 |  |  |  |  |

Further lines, with some results ahead:

| Efficacy [1] [%] | EC50 [2] [nM] | EC50 [3] [nM] | EC50 [4] [nM] | SMILES | fold change (FC) (Mus musculus [5]) | EC50 [6] [nM] | fold change (FC) (Mus musculus [7]) | EC50 [8] [nM] |
| --- | --- | --- | --- | --- | --- | --- | --- | --- |
| 37 | 1090 | 1310 | 1870 | CCOC(Cc1ccc(OCc2nc(-c3ccc(OC)cc3)c(-c3ccc(C(F)(F)F)cc3)s2)cc1)C(=O)O (stereo unspecified) |  |  |  |  |
| 55 | 1590 | 1560 | 6 | Cc1cc(OCc2nc(-c3ccc(C(=O)N4CCCCC4)cc3)c(-c3ccc(OC(F)(F)F)cc3)s2)ccc1OCC(=O)O |  |  |  |  |
|  |  |  | 11 | CCCc1ccc(-c2sc(COc3ccc(OCC(=O)O)c(C)c3)nc2-c2ccc(OC(C)C)cc2)cc1 |  | 13 |  | 17 |
| 89 | 2370 | 6360 | > 10000 | COc1ccc(-c2nc(SCCCCOc3ccc(OCC(=O)O)c(C)c3)sc2-c2ccc(OC)cc2)cc1 |  |  |  |  |
| 62 | 5250 | 6890 | > 10000 | COc1ccc(-c2nc(SCCCOc3ccc(OCC(=O)O)c(C)c3)sc2-c2ccc(OC)cc2)cc1 |  |  |  |  |
| 65 | 690 | 1200 | 2 | Cc1cc(OCc2nc(-c3ccc(C(=O)N(C)C(C)C)cc3)c(-c3ccc(OC(F)(F)F)cc3)s2)ccc1OCC(=O)O |  |  |  |  |
| 64 | 5350 | 5660 | > 10000 | COc1ccc(-c2nc(SCCOc3ccc(OCC(=O)O)c(C)c3)sc2-c2ccc(OC)cc2)cc1 |  |  |  |  |
|  | > 10000 | > 10000 | 480 | COc1ccc(-c2nc(COc3ccc(CC(=O)O)cc3Cl)sc2-c2ccc(C(F)(F)F)cc2)cc1 |  |  |  |  |
|  | > 10000 | > 10000 | 120 | COc1ccc(-c2nc(COc3ccc(OCC(=O)O)c(C)c3)oc2-c2ccc(OC)cc2)cc1 |  |  |  |  |
